In US10221163B2 (priority 2015, dated 2019):
Where two headings read alike, the source gives them in different places.

What was measured:
IMP-1 = IMP-1 (Serratia marcescens, UniProt P52699); experiment: biochemical; format: biochemical; settings: fluorescence assay, CCF2-FA substrate, 2 pM enzyme, 2 hours at 25° C.; read-out: IMP-1 IC50
Method in brief: (§1)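 Enzyme activity was measured by fluorescence using CCF2-FA, a cephalosporin-linked 7-hydroxycoumarin/fluorescein substrate, with inhibitor, metallo-β-lactamase and substrate incubated together for 2 hours at 25° C. IC50 came from a 4-parameter fit of inhibition versus log inhibitor concentration.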

NDM-1 = NDM-1 (Klebsiella pneumoniae, UniProt C7C422); experiment: biochemical; format: biochemical; settings: fluorescence assay, CCF2-FA substrate, 1 pM enzyme, 2 hours at 25° C.; read-out: NDM-1 IC50
Method in brief: as §1

VIM-1 = VIM-1 (Pseudomonas aeruginosa (strain ATCC 15692 / DSM 22644 / CIP 104116 / JCM 14847 / LMG 12228 / 1C / PRS 101 / PAO1), UniProt A0A0F7KYQ8); experiment: biochemical; settings: CCF2-FA substrate, 30 pM enzyme, 2 hours at 25° C.
Method in brief: as §1

[1] = test system: Escherichia coli expressing NDM-1 (CLB30005, CLB30016); format: cell-based; settings: with imipenem 1 μg/ml; 95% inhibition of bacterial growth
Method in brief: (§2)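 Clinical strains grown overnight on blood agar at 35°C, colonies suspended in saline, diluted 1:100 into 1.1×CAMHB. Test compound titrated with imipenem at 1 μg/ml; incubated 22–24 h at 35°C, growth read by absorbance.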

[2] = test system: Klebsiella pneumoniae expressing VIM-1 (IHMA599644); format: cell-based; settings: with imipenem 1 μg/ml; 95% inhibition of bacterial growth
Method in brief: as §2

[3] = test system: Serratia marcescens expressing IMP-1 (CL5741); format: cell-based; settings: with imipenem 1 μg/ml; 95% inhibition of bacterial growth
Method in brief: as §2

[4] = test system: Pseudomonas aeruginosa efflux+ (MB9798), IMP-1; format: cell-based; settings: concentration restoring susceptibility to imipenem at 2 μg/mL in the presence of a class A, C, D serine β-lactamase inhibitor closely related to relebactam
Method in brief: (§3)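 Steps: add fixed imipenem and/or ceftazidime (usually CLSI breakpoint) and fixed AmpC-directed class A/C inhibitor to microbroth MIC wells; titrate MBL inhibitor; record concentration regaining susceptibility for each PAO1-derived strain; divide efflux+ by efflux− value.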

[5] = test system: Pseudomonas aeruginosa efflux− (MB9799), IMP-1; format: cell-based; settings: concentration restoring susceptibility to imipenem at 2 μg/mL in the presence of a class A, C, D serine β-lactamase inhibitor closely related to relebactam
Method in brief: as §3

[6] = test system: Pseudomonas aeruginosa MB9798 vs MB9799; settings: ratio MITC95 PA_9798/MITC95 PA_9799
Method in brief: as §3

[7] = fluorescence assay, read-out: VIM-1 IC50

IMP-1, sequence (P52699 whole entry, looked up, species assumed): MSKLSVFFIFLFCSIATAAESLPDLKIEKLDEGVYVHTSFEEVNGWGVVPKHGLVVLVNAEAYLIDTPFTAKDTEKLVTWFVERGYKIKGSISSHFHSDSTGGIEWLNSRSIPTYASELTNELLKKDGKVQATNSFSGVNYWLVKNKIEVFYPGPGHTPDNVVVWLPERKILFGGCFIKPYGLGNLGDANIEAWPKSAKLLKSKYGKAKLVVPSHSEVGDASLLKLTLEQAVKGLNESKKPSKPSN
NDM-1, sequence (C7C422 whole entry, looked up, species assumed): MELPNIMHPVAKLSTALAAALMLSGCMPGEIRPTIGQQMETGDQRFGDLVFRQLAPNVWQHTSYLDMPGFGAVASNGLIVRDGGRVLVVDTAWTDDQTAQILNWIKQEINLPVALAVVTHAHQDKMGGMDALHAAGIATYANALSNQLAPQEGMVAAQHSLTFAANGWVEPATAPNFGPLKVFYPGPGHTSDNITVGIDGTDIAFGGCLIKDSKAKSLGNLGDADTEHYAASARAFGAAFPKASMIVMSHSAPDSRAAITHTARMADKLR

SMILES | IC50 (IMP-1) [nM] | IC50 (NDM-1) [nM] | IC50 (VIM-1; [7]) [nM] | Escherichia coli expressing NDM-1 (CLB30016) MITC95 [1] [µM] | Klebsiella pneumoniae expressing VIM-1 (IHMA599644) MITC95 [2] [µM] | Serratia marcescens expressing IMP-1 (CL5741) MITC95 [3] [µM] | P. aeruginosa expressing IMP-1, efflux + (MB9798) MITC95 [4] [µM] | P. aeruginosa expressing IMP-1, efflux − (MB9799) MITC95 [5] [µM] | Efflux ratio [6] | IC50 (VIM-1; VIM-1 IC50, fluorescence assay) [nM]
Nc1nc2cccc(-c3ccc(S(=O)(=O)N4CCNCC4)c(S(N)(=O)=O)c3-c3nn[nH]n3)c2[nH]1 [Example 157, 3-(2-amino-3H-benzo[d]imidazol-4-yl)-6-(piperazin-1-ylsulfonyl)-2-(2H-tetrazol-5-yl)benzenesulfonamide] | 3.09 | 0.32 | 0.827 | 0.125 | 1.281 | 0.8906 | 1.781 | 0.4453 | 4.00 | –
Cn1c(N)nc2c(-c3ccc(S(=O)(=O)N4CCNCC4)c(S(N)(=O)=O)c3-c3nn[nH]n3)cccc21 [Example 158, 3-(2-amino-1-methyl-1H-benzo[d]imidazol-4-yl)-6-(piperazin-1-ylsulfonyl)-2-(2H-tetrazol-5-yl)benzenesulfonamide] | 1.71 | 0.601 | – | 0.25 | 1.781 | 0.8906 | 3.125 | 0.8906 | 3.51 | 1.27
Nc1nc2c(-c3ccc(S(=O)(=O)N4CCNCC4)c(S(N)(=O)=O)c3-c3nn[nH]n3)cccc2o1 [Example 159, 3-(2-aminobenzo[d]oxazol-4-yl)-6-(piperazin-1-ylsulfonyl)-2-(2H-tetrazol-5-yl)benzenesulfonamide] | 1.29 | 0.195 | 0.51 | 1.563 | 3.125 | 1.563 | 3.125 | 1.563 | 2.00 | –
NS(=O)(=O)c1c(S(=O)(=O)N2CCNCC2)ccc(-c2cccc3cn[nH]c23)c1-c1nnn[nH]1 [Example 160, 3-(1H-indazol-7-yl)-6-(piperazin-1-ylsulfonyl)-2-(1H-tetrazol-5-yl)benzenesulfonamide] | 1.39 | 0.599 | 1.07 | 3.125 | 3.125 | 1.563 | 6.25 | 1.563 | 4.00 | –
Nc1nc2c(-c3ccc(S(=O)(=O)N[C@@H]4CCNC4)c(S(N)(=O)=O)c3-c3nn[nH]n3)cccc2[nH]1 [Example 161, 4-(2-amino-1H-benzo[d]imidazol-4-yl)-N^1—((R)-pyrrolidin-3-yl)-3-(2H-tetrazol-5-yl)benzene-1,2-disulfonamide] | 0.401 | 0.0314 | 0.106 | 0.2995 | 0.8542 | 0.5295 | 0.3993 | 0.5139 | 0.78 | –
Nc1nc2c(-c3ccc(S(=O)(=O)N[C@H]4CCNC4)c(S(N)(=O)=O)c3-c3nn[nH]n3)cccc2[nH]1 [Example 162, 4-(2-amino-1H-benzo[d]imidazol-4-yl)-N^1-((S)-pyrrolidin-3-yl)-3-(2H-tetrazol-5-yl)benzene-1,2-disulfonamide] | 0.733 | 0.0607 | 0.154 | 0.3203 | 0.9844 | 0.5573 | 0.4271 | 0.4922 | 0.87 | –
Cn1c(N)nc2c(-c3ccc(S(=O)(=O)N[C@H]4CCNC4)c(S(N)(=O)=O)c3-c3nn[nH]n3)cccc21 [Example 163, 4-(2-amino-1-methyl-1H-benzo[d]imidazol-4-yl)-N^1-((S)-pyrrolidin-3-yl)-3-(2H-tetrazol-5-yl)benzene-1,2-disulfonamide] | 0.45 | 0.0605 | 0.118 | 0.3906 | 0.7813 | 0.7813 | 0.7813 | 0.7813 | 1.00 | –
Cn1c(N)nc2c(-c3ccc(S(=O)(=O)N[C@@H]4CCNC4)c(S(N)(=O)=O)c3-c3nn[nH]n3)cccc21 [Example 164, 4-(2-amino-1-methyl-1H-benzo[d]imidazol-4-yl)-N^1-((R)-pyrrolidin-3-yl)-3-(2H-tetrazol-5-yl)benzene-1,2-disulfonamide] | 0.272 | 0.0378 | 0.105 | 0.3906 | 0.7813 | 0.7813 | 0.7813 | 0.7813 | 1.00 | –
NC1CCC(c2ccc(S(N)(=O)=O)c(S(N)(=O)=O)c2-c2nnn[nH]2)CC1 (stereo not drawn) [Example 165, 4-(4-aminocyclohexyl)-3-(1H-tetrazol-5-yl)benzene-1,2-disulfonamide] | 24.4 | 17.7 | – | 0.3906 | 3.125 | 1.563 | 6.25 | 1.563 | 4.00 | 1.17
C[N+]1(C)CC[C@H](NS(=O)(=O)c2ccc(-c3cccc4[nH]c(N)nc34)c(-c3nn[n-]n3)c2S(N)(=O)=O)C1 [Example 166, (S)-5-(6-(2-amino-1H-benzo[d]imidazol-4-yl)-3-(N-(1,1-dimethylpyrrolidin-1-ium-3-yl)sulfamoyl)-2-sulfamoylphenyl)tetrazol-2-ide] | 0.82 | 0.0581 | – | 0.7813 | 3.125 | 1.563 | 1.563 | 1.563 | […] | […]
Cn1c(N)nc2c(-c3ccc(S(=O)(=O)N[C@H]4CC[N+](C)(C)C4)c(S(N)(=O)=O)c3-c3nn[n-]n3)cccc21 [Example 167, (S)-5-(6-(2-amino-1-methyl-1H-benzo[d]imidazol-4-yl)-3-(N-(1,1-dimethylpyrrolidin-1-ium-3-yl)sulfamoyl)-2-sulfamoylphenyl)tetrazol-2-ide] | 0.346 | 0.0591 | – | 1.563 | 3.125 | 1.563 | 3.125 | 1.563 | 2.00 | 0.169
Nc1nc2c(-c3ccc(S(=O)(=O)N[C@H]4CNC[C@H]4O)c(S(N)(=O)=O)c3-c3nnn[nH]3)cccc2[nH]1 [Example 168, 4-(2-amino-1H-benzo[d]imidazol-4-yl)-N^1-((3S,4R)-4-hydroxypyrrolidin-3-yl)-3-(1H-tetrazol-5-yl)benzene-1,2-disulfonamide] | 0.544 | 0.0515 | – | 0.375 | 0.8906 | 0.668 | 0.3828 | 0.543 | 0.70 | 0.16
